Data taken from patent US11827628B2, “Compositions and methods for inhibition of the JAK pathway” (Rigel Pharmaceuticals, Inc., priority 2005, dated 2023).

Tests used:
[1] = system: IL-4 stimulated expression of CD23 in human Ramos B cells (JAK-1 and JAK-3); assay: Assay for Ramos B-Cell Line Stimulated with IL-4 (CD23 upregulation, FACS); assay type: cell-based; details: Homo sapiens, Ramos, Ramos B cells stimulated with IL-4, CD23 expression by FACS; read-out: IC50, Example 41
Method in brief: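 Steps: Ramos B cells are suspended in RPMI with 5% serum, exposed to compound for 1 h at 37 °C, stimulated with IL-4 (final 50 units/mL) for 20-24 h, stained for CD23 and analysed by flow cytometry. IC50 is calculated.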

[2] = system: up-regulation of ICAM-1 (CD54) by IFNγ in U937 human monocytic cells; assay: U937 IFNγ ICAM1 FACS Assay; assay type: cell-based; details: Homo sapiens, U-937, U937 cells stimulated with IFNγ, ICAM-1 expression by FACS; read-out: IC50, Example 44
Description: The activity of the compounds of the invention may additionally be characterized by assaying the effect of the 2,4-substituted pyrimidinediamine compounds described herein on A549 lung epithelial cells and U937 cells. A549 lung epithelial cells and U937 cells up-regulate ICAM-1 (CD54) surface expression in response to a variety of different stimuli. Therefore, using ICAM-1 expression as readout, test compound effects on different signaling pathways can be assessed in the same cell type. Stimulation with IL-1β through the IL-1β receptor activates the TRAF6/NFκB pathway resulting in up-regulation of ICAM-1. IFNγ induces ICAM-1 up-regulation through activation of the JAK1/JAK2 pathway. The up-regulation of ICAM-1 can be quantified by flow cytometry across a compound dose curve and EC50, values are calculated.
U937 human monocytic cells up-regulate ICAM-1 (CD54) surface expression in response to a variety of different stimuli. Therefore, using ICAM-1 expression as readout, compound effects on different signaling pathways can be assessed in the same cell type. IFNγ up-regulates ICAM-1 through activation of the JAK/Stat pathway. In this example, the up-regulation of ICAM-1 by IFNγ was assessed.
The U937 human monocytic cell line was obtained from ATCC of Rockville Maryland, catalog number CRL-1593.2, and cultured in RPM1-1640 medium containing 10% (v/v) FCS. U937 cells were grown in 10% RPMI. The cells were then plated at a concentration of 100,000 cells per 160 μL in 96 well flat bottom plates. […] Then 4 μL of test compound was transferred to 76 μL of 10% RPMI resulting in a 10× solution (100 μM test compound, 5% DMSO). For control wells, 4 μL of DMSO was diluted into 76 μL 10% RPMI.
The assay was performed in duplicate with 8 points (8 3-fold dilution concentrations from […]) and with 4 wells of DMSO only (control wells) under stimulated conditions and 4 wells of DMSO only under unstimulated conditions.
The diluted compound plate was mixed 2× using a multimek (Beckman Coulter of Brea, California) and then 20 μL of the diluted compounds was transferred to the 96 well plate containing 160 μL of cells, which were then mixed again twice at low speeds. The cells and compounds were then pre-incubated for 30 minutes at 37° C. with 5% CO2.
The 10× stimulation mix was made by preparing a 100 ng/mL solution of human IFNγ in 10% RPMI. […] The cells were kept under conditions for stimulation for 18-24 hours at 37° C. with 5% CO2.
The cells were transferred to a 96 well round bottom plate for staining and then kept on ice for the duration of the staining procedure. Cells were spun down at 1000 rpm for 5 minutes at 4° C., following which the supernatant was removed. Following removal of the supernatant, 1 μL APC conjugated mouse anti-human ICAM-1 antibody was added per 100 μL FACS buffer. The cells were then incubated on ice in the dark for 30 minutes. Following incubation, […] of FACS buffer was added and the cells were centrifuged at 1000 rpm for 5 minutes at 4° C., following which the supernatant was removed. After removal of the supernatant, 200 μL of FACS buffer was added and the cells were resuspended. After suspension, the cells were centrifuged at 1000 rpm for 5 min at 4° C. Supernatant was then removed prior to resuspension of the cells in 150 μL FACS buffer.
Detection was performed using a BD LSR I System Flow Cytometer, purchased from BD Biosciences of San Jose, California The live cells were gated for live scatter and the geometric mean of ICAM-APC was measured (Becton-Dickinson CellQuest software version 3.3, Franklin Lakes, NJ). Both % live cells and ICAM-1 expression was analyzed. The assays for the test compounds were carried out in parallel with a control compound of known activity.

Structure (SMILES)	IC50 [1] [µM]	IC50 [2] [µM]
COc1ccc(Nc2nc(Nc3cccc(S(N)(=O)=O)c3)ncc2F)cc1Cl [VI-107, N2-(3-Aminosulfonylphenyl)-5-fluoro-N4-(4-methoxy-3-chlorophenyl]-2,4-pyrimidinediamine]	0.159	0.856
CN1C(=O)CSc2ccc(Nc3nc(Nc4cccc(S(N)(=O)=O)c4)ncc3F)cc21 [VII-49, N2-(3-Aminosulfonylphenyl)-5-fluoro-N4-(4-methyl-3-oxo-benz[1,4]thiazin-6-yl)-2,4-pyrimidinediamine]	0.0378	0.577
Cc1ccc(Nc2ncc(F)c(Nc3ccc4c(c3)N(CC#N)C(=O)CO4)n2)cc1S(N)(=O)=O [Compound V-8, N2-(3-Aminosulphonyl-4-methylphenyl)-5-fluoro-N4-[3-oxo-4-cyanomethyl-benz[1,4]oxazin-6-yl]-2,4-pyrimidinediamine]	0.0291	0.62
Cc1ccc(Nc2ncc(F)c(Nc3ccc(CO)cc3)n2)cc1S(N)(=O)=O [VI-52, N2-(3-Aminosulfonyl-4-methylphenyl)-5-fluoro-N4-(4-hydroxymethylphenyl)-2,4-pyrimidinediamine]	0.168	1.74
Cc1cnc(Nc2cccc(S(N)(=O)=O)c2)nc1Nc1ccc2c(c1)N(C)C(=O)CS2 [VII-35, N2-(3-Aminosulphonylphenyl)-5-methyl-N4-(4-methyl-3-oxo-benzo[1,4]thiazin-6-yl)-2,4-pyrimidinediamine]	0.0448	0.245
COc1ccc(Nc2nc(Nc3cc(Cl)c(C)c(S(N)(=O)=O)c3)ncc2F)cc1Cl [VI-13, N2-(3-Aminosulfonyl-5-chloro-4-methylphenyl)-N4-(3-chloro-4-methoxyphenyl)-5-fluoro-2,4-pyrimidinediamine]	0.0965	1.39
C#CCOC(=O)NCc1ccc(Nc2nc(Nc3cccc(S(N)(=O)=O)c3)ncc2F)cc1 [VI-74, N2-(3-Aminosulfonylphenyl)-5-fluoro-N4-{4-[(prop-2-ynyloxy)carbonylaminomethyl]phenyl}-2,4-pyrimidinediamine]	0.0946	3.85
COc1ccc(Nc2nc(Nc3cccc(S(N)(=O)=O)c3)ncc2F)cn1 [VII-6, N2-(3-Aminosulfonylphenyl)-5-fluoro-N4-(2-methoxypyrid-5-yl)-2,4-pyrimidinediamine]	0.102	3.65
Cc1ccc(Nc2ncc(F)c(Nc3ccc4[nH]cc(CC#N)c4c3)n2)cc1S(N)(=O)=O [IX-14, N2-(3-Aminosulfonyl-4-methylphenyl)-N4-(3-cyanomethyl-1H-indol-5-yl)-5-fluoro-2,4-pyrimidinediamine]	0.0574	1.09
Cc1ccc(Nc2ncc(F)c(Nc3cccc4c(CC#N)c[nH]c34)n2)cc1S(N)(=O)=O [IX-16, N2-(3-Aminosulfonyl-4-methylphenyl)-N4-(3-cyanomethyl-1H-indol-7-yl)-5-fluoro-2,4-pyrimidinediamine]	0.21	2.51
Cc1ccc(Nc2ncc(F)c(Nc3ccc4c(CC#N)c[nH]c4c3)n2)cc1S(N)(=O)=O [IX-11, N2-(3-Aminosulfonyl-4-methylphenyl)-N4-(3-cyanomethyl-1H-indol-6-yl)-5-fluoro-2,4-pyrimidinediamine]	0.115	2.24
Cc1cnc(Nc2cccc(S(N)(=O)=O)c2)nc1Nc1ccc2c(c1)NC(=O)CO2 [VII-32, N2-(3-Aminosulphonylphenyl)-5-methyl-N4-(3-oxo-benz[1,4]oxazin-6-yl)-2,4-pyrimidinediamine]	0.107	2.06
C#CCNc1ccc(Nc2nc(Nc3ccc(C)c(S(N)(=O)=O)c3)ncc2F)cc1 [VI-65, N2-(3-Aminosulfonyl-4-methylphenyl)-5-fluoro-N4-[4-(prop-2-ynylamino)phenyl]-2,4-pyrimidinediamine]	0.0906	0.964
C#CCOc1ccc(Nc2nc(Nc3ccc(C)c(S(N)(=O)=O)c3)ncc2F)cc1 [VI-53, N2-(3-Aminosulfonyl-4-methylphenyl)-5-fluoro-N4-[4-(prop-2-ynyloxy)phenyl]-2,4-pyrimidinediamine]	0.0563	0.565
NC(=O)c1cc2cc(Nc3nc(Nc4cccc(S(N)(=O)=O)c4)ncc3F)ccc2o1 [VII-54, N2-(3-Aminosulfonylphenyl)-N4-(2-aminocarbonylbenzofurane-5-yl)-5-fluoro-2,4-pyrimidinediamine]	0.295	64.6
COc1ccc(CN2C(=O)C(C)Sc3ccc(Nc4nc(Nc5ccc(S(N)(=O)=O)cc5)ncc4F)cc32)cc1 (racemic) [Compound V-10, (R/S)-N2-(4-Aminosulphonylphenyl)-5-fluoro-N4-[2-methyl-3-oxo-4-(4-methoxybenzyl)-benzo[1,4]thiazin-6-yl]-2,4-pyrimidinediamine]	0.261	2.7
N#CCN1C(=O)COc2ccc(Nc3nc(Nc4ccc(S(N)(=O)=O)cc4)ncc3F)cc21 [Compound V-6, N2-(4-Aminosulphonylphenyl)-5-fluoro-N4-(3-oxo-4-cyanomethyl-benz[1,4]oxazin-6-yl]-2,4-pyrimidinediamine]	0.0219	0.572
COc1ccc(Nc2nc(Nc3ccc(C(C)C)c(S(N)(=O)=O)c3)ncc2F)cc1Cl [VI-45, N2-(3-Aminosulfonyl-4-iso-propylphenyl)-N4-(3-chloro-4-methoxy-phenyl)-5-fluoro-2,4-pyrimidinediamine]	0.108	–
NS(=O)(=O)c1ccc(Nc2ncc(F)c(Nc3ccc(CCCO)cc3)n2)cc1 [VI-85, N2-(4-Aminosulfonylphenyl)-5-fluoro-N4-[4-(3-hydroxypropyl)phenyl]-2,4-pyrimidinediamine]	0.129	–
Cc1ccc(Nc2ncc(F)c(Nc3ccc(CCCF)cc3)n2)cc1S(N)(=O)=O [VI-84, N2-(3-Aminosulfonyl-4-methylphenyl)-5-fluoro-N4-[4-(3-fluoropropyl)phenyl]-2,4-pyrimidinediamine]	0.132	–
COc1c(C)cc(Nc2ncc(F)c(Nc3ccc(C(C)(C)C)cc3)n2)cc1S(N)(=O)=O [VI-37, N2-(3-Aminosulfonyl-4-methoxy-5-methylphenyl)-N4-(4-tert-butylphenyl)-5-fluoro-2,4-pyrimidinediamine]	0.0692	–
Cc1ccc(Nc2ncc(F)c(Nc3ccc4oc(C#N)cc4c3)n2)cc1S(N)(=O)=O [VII-53, N2-(3-Aminosulfonyl-4-methylphenyl)-N4-(2-cyanobenzofuran-5-yl)-5-fluoro-2,4-pyrimidinediamine]	0.168	–
C#CCOc1ccc(Nc2nc(Nc3ccc(C)c(S(N)(=O)=O)c3)ncc2F)cc1Cl [VI-59, N2-(3-Aminosulfonyl-4-methylphenyl)-N4-[3-chloro-4-(prop-2-ynyloxy)phenyl]-5-fluoro-2,4-pyrimidinediamine]	0.076	–
NS(=O)(=O)c1ccc(Nc2ncc(F)c(Nc3ccc(CCCCO)cc3)n2)cc1 [VI-88, N2-(4-Aminosulfonylphenyl)-5-fluoro-N4-[4-(4-hydroxybutyl)phenyl]-2,4-pyrimidinediamine]	0.216	–
Cc1ccc2cc(Nc3nc(Nc4ccc(C)c(S(N)(=O)=O)c4)ncc3F)ccc2n1 [VII-71, N2-(3-Aminosulfonyl-4-methylphenyl)-5-fluoro-N4-(2-methylquinolin-6-yl)-2,4-pyrimidinediamine]	0.149	–
